Reference: BindingDB's records for doi:10.1021/acsmedchemlett.0c00586 (University of Iowa, 2021)

Experiment: Binding affinity to BTN3A1 in human PBMC-derived Vgamma9/Vdelta2 T cells assessed as induction of Vgamma9Vdelta2 T cells proliferation incubated for 3 days by gamma delta TCR/PE-CD3+ antibody staining based FACS analysis

| SMILES | EC50 [nM] |
| --- | --- |
| C/C(C=O)=C\CCP(=O)(OCOC(=O)C(C)(C)C)Oc1ccc2ccccc2c1 (stereo not given) | 4.6 |
| C/C(C=O)=C\CCP(=O)(OCOC(=O)C(C)(C)C)Oc1ccc2ccc(=O)oc2c1 (stereo not given) | 12 |
| C/C(C=O)=C\CCP(=O)(OCOC(=O)C(C)(C)C)OCOC(=O)C(C)(C)C | 47 |
| C/C(C=O)=C\CCP(=O)(NCC(=O)OC(C)C)Oc1ccccc1 (stereo not given) | 49 |
| CCOC(=O)CNP(=O)(CC/C=C(\C)C=O)Oc1ccccc1 (stereo not given) | 20 |
| COC(=O)CNP(=O)(CC/C=C(\C)C=O)Oc1ccccc1 (stereo not given) | 47 |
| CCOC(=O)CNP(=O)(CC/C=C(C)/C=N/O)Oc1ccccc1 (stereo not given) | 790 |
| CCOC(=O)CNP(=O)(CCC=C(C)C)Oc1cccc2ccccc12 (stereo not given) | > 100000 |
| CC(C)=CCCP(=O)(O)O | > 100000 |
| C/C(=C\CCP(=O)(OCOC(=O)C(C)(C)C)Oc1ccc2ccc(=O)oc2c1)CO (stereo not given) | 8 |
